Assay results reported in ChEMBL document CHEMBL1147423, “Synthesis and antifungal activities of phenylenedithioureas” (2004).
Values after ≈ are worked out from the molar mass of the structure shown.

Columns and labels:
Aspergillus niger = assay: Minimum inhibitory concentration against Aspergillus niger; type: functional
Trichophyton benhamiae = assay: Minimum inhibitory concentration against Trichophyton mentagrophytes; type: functional, Arthroderma benhamiae
Pseudomonas aeruginosa = assay: Minimum inhibitory concentration against Pseudomonas aeruginosae ATCC 27853; type: functional
Nannizzia nana = assay: Minimum inhibitory concentration against Microsporum nanum; type: functional
Arthroderma uncinatum = assay: Minimum inhibitory concentration against Trichophyton ajelloi; type: functional
Aspergillus flavus = assay: Minimum inhibitory concentration against Aspergillus flavus; type: functional
Candida albicans = assay: Minimum inhibitory concentration against Candida albicans ATCC 10231; type: functional
Enterococcus faecalis = assay: Minimum inhibitory concentration against Streptococcus faecalis ATCC 29212; type: functional
Staphylococcus aureus = assay: Minimum inhibitory concentration Staphylococcus aureus ATCC 29213; type: functional
Paraphyton cookei = assay: Minimum inhibitory concentration against Microsporum cookei; type: functional
Escherichia coli = assay: Minimum inhibitory concentration against Escherichia coli ATCC 25853; type: functional
Nannizzia gypsea = assay: Minimum inhibitory concentration Microsporum gypseum; type: functional

Row | Structure (SMILES) | MIC (Aspergillus niger) [µg/mL] | MIC (Trichophyton benhamiae) [µg/mL] | MIC (Pseudomonas aeruginosa) [µg/mL] | MIC (Nannizzia nana) [µg/mL] | MIC (Arthroderma uncinatum) [µg/mL] | MIC (Aspergillus flavus) [µg/mL] | MIC (Candida albicans) [µg/mL] | MIC (Enterococcus faecalis) [µg/mL] | MIC (Staphylococcus aureus) [µg/mL] | MIC (Paraphyton cookei) [µg/mL] | MIC (Escherichia coli) [µg/mL] | MIC (Nannizzia gypsea) [µg/mL]
1 | O=C(O)c1ccc(/N=C(\S)Nc2cccc(/N=C(/S)Nc3ccc(C(=O)O)cc3)c2)cc1 | ≥ 512 | 64 (≈ 137 µM) | 512 (≈ 1100 µM) | 64 (≈ 137 µM) | 64 (≈ 137 µM) | ≥ 512 | > 512 | 512 (≈ 1100 µM) | 256 (≈ 549 µM) | 32 (≈ 68.6 µM) | > 512 | 64 (≈ 137 µM)
2 | CC(C)OC(=O)c1ccc(/N=C(\S)Nc2ccc(/N=C(\S)Nc3ccc(C(=O)OC(C)C)cc3)cc2)cc1 | ≥ 512 | 64 (≈ 116 µM) | 512 (≈ 930 µM) | 64 (≈ 116 µM) | 64 (≈ 116 µM) | ≥ 512 | > 512 | 512 (≈ 930 µM) | > 512 | 64 (≈ 116 µM) | > 512 | 32 (≈ 58.1 µM)
3 | COC(=O)c1ccc(/N=C(\S)Nc2ccc(/N=C(\S)Nc3ccc(C(=O)OC)cc3)cc2)cc1 | ≥ 512 | 32 (≈ 64.7 µM) | 512 (≈ 1040 µM) | 32 (≈ 64.7 µM) | 128 (≈ 259 µM) | ≥ 512 | > 512 | 512 (≈ 1040 µM) | > 512 | 128 (≈ 259 µM) | > 512 | 256 (≈ 518 µM)
4 | O=C(O)c1ccc(/N=C(\S)Nc2ccc(/N=C(\S)Nc3ccc(C(=O)O)cc3)cc2)cc1 | ≥ 512 | 32 (≈ 68.6 µM) | 512 (≈ 1100 µM) | 128 (≈ 274 µM) | 128 (≈ 274 µM) | ≥ 512 | 512 (≈ 1100 µM) | 512 (≈ 1100 µM) | > 512 | 128 (≈ 274 µM) | > 512 | 32 (≈ 68.6 µM)
5 | CC(C)OC(=O)c1ccc(/N=C(\S)Nc2cccc(/N=C(/S)Nc3ccc(C(=O)OC(C)C)cc3)c2)cc1 | ≥ 512 | 32 (≈ 58.1 µM) | > 512 | 8 (≈ 14.5 µM) | 64 (≈ 116 µM) | ≥ 512 | > 512 | > 512 | 512 (≈ 930 µM) | 16 (≈ 29.1 µM) | 512 (≈ 930 µM) | 64 (≈ 116 µM)
6 | O=C(NNc1ccccc1)c1ccc(NC(=S)Nc2ccc(NC(=S)Nc3ccc(C(=O)NNc4ccccc4)cc3)cc2)cc1 | ≥ 512 | 16 (≈ 24.7 µM) | 512 (≈ 792 µM) | 8 (≈ 12.4 µM) | 128 (≈ 198 µM) | ≥ 512 | > 512 | 512 (≈ 792 µM) | 128 (≈ 198 µM) | 16 (≈ 24.7 µM) | 512 (≈ 792 µM) | 64 (≈ 98.9 µM)
7 | COC(=O)c1ccc(/N=C(\S)Nc2cccc(/N=C(/S)Nc3ccc(C(=O)OC)cc3)c2)cc1 | ≥ 512 | 64 (≈ 129 µM) | > 512 | 128 (≈ 259 µM) | 64 (≈ 129 µM) | ≥ 512 | > 512 | > 512 | 512 (≈ 1040 µM) | 64 (≈ 129 µM) | 512 (≈ 1040 µM) | 128 (≈ 259 µM)
8 | O=C(O)c1ccc(N/C(S)=N\c2ccccc2/N=C(/S)Nc2ccc(C(=O)O)cc2)cc1 | ≥ 512 | 32 (≈ 68.6 µM) | 512 (≈ 1100 µM) | 16 (≈ 34.3 µM) | 16 (≈ 34.3 µM) | ≥ 512 | > 512 | 512 (≈ 1100 µM) | > 512 | 32 (≈ 68.6 µM) | > 512 | 32 (≈ 68.6 µM)
9 | O=C(NNc1ccccc1)c1ccc(/N=C(\S)Nc2ccc(/N=C(/S)Nc3ccc(C(=O)NNc4ccccc4)c(O)c3)cc2)cc1O | ≥ 512 | 32 (≈ 47.1 µM) | 512 (≈ 754 µM) | 64 (≈ 94.3 µM) | 32 (≈ 47.1 µM) | ≥ 512 | 512 (≈ 754 µM) | 512 (≈ 754 µM) | 512 (≈ 754 µM) | 64 (≈ 94.3 µM) | 512 (≈ 754 µM) | 128 (≈ 189 µM)
10 | O=C(O)c1ccc(N/C(S)=N\c2ccccc2/N=C(/S)Nc2ccc(C(=O)O)c(O)c2)cc1O | ≥ 512 | 8 (≈ 16 µM) | 512 (≈ 1030 µM) | 32 (≈ 64.2 µM) | 32 (≈ 64.2 µM) | ≥ 512 | 512 (≈ 1030 µM) | 512 (≈ 1030 µM) | > 512 | 32 (≈ 64.2 µM) | > 512 | 16 (≈ 32.1 µM)
11 | O=C(N[C@H](CO)[C@H](O)c1ccc([N+](=O)[O-])cc1)C(Cl)Cl [CHLORAMPHENICOL] | ≥ 512 |  | 512 (≈ 1580 µM) |  |  | ≥ 512 |  |  | 128 (≈ 396 µM) |  |  | 
12 | CC(=O)N1CCN(c2ccc(OC[C@H]3CO[C@](Cn4ccnc4)(c4ccc(Cl)cc4Cl)O3)cc2)CC1 [KETOCONAZOLE] | ≥ 512 | 16 (≈ 30.1 µM) |  | 16 (≈ 30.1 µM) | 16 (≈ 30.1 µM) | ≥ 512 | 128 (≈ 241 µM) |  |  | 8 (≈ 15.1 µM) |  | 16 (≈ 30.1 µM)

Continued, values first:

Row | MIC (Aspergillus niger) [µg/mL] | MIC (Trichophyton benhamiae) [µg/mL] | MIC (Pseudomonas aeruginosa) [µg/mL] | MIC (Nannizzia nana) [µg/mL] | MIC (Arthroderma uncinatum) [µg/mL] | MIC (Aspergillus flavus) [µg/mL] | MIC (Candida albicans) [µg/mL] | MIC (Enterococcus faecalis) [µg/mL] | MIC (Staphylococcus aureus) [µg/mL] | MIC (Paraphyton cookei) [µg/mL] | MIC (Escherichia coli) [µg/mL] | MIC (Nannizzia gypsea) [µg/mL] | Structure (SMILES)
13 | ≥ 512 | 512 (≈ 980 µM) | 512 (≈ 980 µM) | 128 (≈ 245 µM) | 256 (≈ 490 µM) | ≥ 512 | > 512 | 512 (≈ 980 µM) | > 512 | 128 (≈ 245 µM) | > 512 | > 512 | CCOC(=O)c1ccc(/N=C(\S)Nc2ccc(/N=C(\S)Nc3ccc(C(=O)OCC)cc3)cc2)cc1
14 | ≥ 512 | > 512 | 512 (≈ 879 µM) | 128 (≈ 220 µM) | 128 (≈ 220 µM) | ≥ 512 | > 512 | 512 (≈ 879 µM) | > 512 | 128 (≈ 220 µM) | > 512 | 256 (≈ 439 µM) | CC(C)OC(=O)c1ccc(/N=C(\S)Nc2ccc(/N=C(/S)Nc3ccc(C(=O)OC(C)C)c(O)c3)cc2)cc1O
15 | ≥ 512 | 64 (≈ 122 µM) | 512 (≈ 972 µM) | 32 (≈ 60.8 µM) | 32 (≈ 60.8 µM) | ≥ 512 | > 512 | 512 (≈ 972 µM) | > 512 | 64 (≈ 122 µM) | > 512 | 16 (≈ 30.4 µM) | COC(=O)c1ccc(/N=C(\S)Nc2ccc(/N=C(/S)Nc3ccc(C(=O)OC)c(O)c3)cc2)cc1O
16 | ≥ 512 | 64 (≈ 122 µM) | > 512 | 32 (≈ 60.8 µM) | 128 (≈ 243 µM) | ≥ 512 | 512 (≈ 972 µM) | > 512 | 256 (≈ 486 µM) | 32 (≈ 60.8 µM) | 512 (≈ 972 µM) | 64 (≈ 122 µM) | COC(=O)c1ccc(/N=C(\S)Nc2cccc(/N=C(/S)Nc3ccc(C(=O)OC)c(O)c3)c2)cc1O
17 | ≥ 512 | 128 (≈ 257 µM) | 512 (≈ 1030 µM) | 64 (≈ 128 µM) | 128 (≈ 257 µM) | ≥ 512 | 256 (≈ 513 µM) | 512 (≈ 1030 µM) | > 512 | 128 (≈ 257 µM) | > 512 | 128 (≈ 257 µM) | O=C(O)c1ccc(/N=C(\S)Nc2ccc(/N=C(/S)Nc3ccc(C(=O)O)c(O)c3)cc2)cc1O
18 | ≥ 512 | 16 (≈ 27.5 µM) | > 512 | 32 (≈ 54.9 µM) | 32 (≈ 54.9 µM) | ≥ 512 | > 512 | > 512 | 256 (≈ 439 µM) | 32 (≈ 54.9 µM) | 512 (≈ 879 µM) | 32 (≈ 54.9 µM) | CC(C)OC(=O)c1ccc(/N=C(\S)Nc2cccc(/N=C(/S)Nc3ccc(C(=O)OC(C)C)c(O)c3)c2)cc1O
19 | ≥ 512 | 32 (≈ 57.7 µM) | > 512 | 32 (≈ 57.7 µM) | 32 (≈ 57.7 µM) | ≥ 512 | > 512 | > 512 | 256 (≈ 462 µM) | 64 (≈ 115 µM) | 512 (≈ 923 µM) | 32 (≈ 57.7 µM) | CCOC(=O)c1ccc(/N=C(\S)Nc2cccc(/N=C(/S)Nc3ccc(C(=O)OCC)c(O)c3)c2)cc1O
20 | ≥ 512 | > 512 | 512 (≈ 923 µM) | 128 (≈ 231 µM) | > 512 | ≥ 512 | > 512 | 512 (≈ 923 µM) | > 512 | 256 (≈ 462 µM) | > 512 | 256 (≈ 462 µM) | CCOC(=O)c1ccc(/N=C(\S)Nc2ccc(/N=C(/S)Nc3ccc(C(=O)OCC)c(O)c3)cc2)cc1O
21 | ≥ 512 | 32 (≈ 64.2 µM) | > 512 | 64 (≈ 128 µM) | 32 (≈ 64.2 µM) | ≥ 512 | > 512 | > 512 | 256 (≈ 513 µM) | 8 (≈ 16 µM) | 512 (≈ 1030 µM) | 64 (≈ 128 µM) | O=C(O)c1ccc(/N=C(\S)Nc2cccc(/N=C(/S)Nc3ccc(C(=O)O)c(O)c3)c2)cc1O
22 | ≥ 512 | 64 (≈ 122 µM) | > 512 | 256 (≈ 490 µM) | 256 (≈ 490 µM) | ≥ 512 | > 512 | > 512 | 512 (≈ 980 µM) | 256 (≈ 490 µM) | 512 (≈ 980 µM) | 64 (≈ 122 µM) | CCOC(=O)c1ccc(/N=C(\S)Nc2cccc(/N=C(/S)Nc3ccc(C(=O)OCC)cc3)c2)cc1
